Measured values as given in PMC9518248, “Inhibition of Toxoplasma gondii by 1,2,4-triazole-based compounds: marked improvement in selectivity relative to the standard therapy pyrimethamine and sulfadiazine” (Journal of Enzyme Inhibition and Medicinal Chemistry, 2022).
≈ marks a conversion by molar mass, not a printed value.

Experiments:
[1] = system: mouse fibroblasts L929 cells; test: Cell viability assay (MTT, ISO 10993-5); assay type: cell-based; settings: 24 h, highest dilution causing 30% or higher destruction of cells
Experimental: Culture medium RPMI 1640, without phenol red (Biowest, Nuaille, France) supplemented with 10% FBS, 2 mM […] penicillin, 100 μg/mL streptomycin were used. Briefly, 1 × 10^4/well of L929 cells were placed in 96-well plates and incubated for 24 h at 37 °C and 10% CO2. Afterwards, the old culture medium was replaced with 100 μL of the compound, drug or inhibitor, diluted in culture medium and the cells treated for 24 h. Additionally, cells were treated with 0.03-4.0% concentration of DMSO as the solvent (data not shown). Then, 50 μL of 1 mg/mL of MTT solution in RPMI 1640 without phenol red was added to each well and incubated for 2 h at 37 °C and 10% CO2. Next, cell culture medium was aspirated carefully and 150 μL of DMSO was added to each well, and the plates were gently mixed. Then, 25 μL 0.1 M glycine buffer (pH 10.5) (Sigma-Aldrich) was added. The optical density at 570 nm using a multi-mode microplate reader SpectraMax® i3 (Syngen, Taipei City, Taiwan) was recorded. The results were expressed as a percentage of viability compared to untreated cells. All experiments were performed in triplicate. The reported methyl thiazolyltetrazole (MTT) method was used to study in vitro cytotoxic profile of the s-triazoles 1b-27b to the host cells (L929). Experiments were performed in accordance with the international standard IS0-10993-5:2009. […] The data for acyclic precursors 1a-27a are also included for comparison[39]^,[40].

T. gondii RH-GFP = test: Antiparasitic assay: T. gondii RH-GFP proliferation in Hs27 cells; assay type: cell-based, Toxoplasma gondii; settings: for IC50: Toxoplasma gondii, T. gondii RH-GFP in Hs27 cells, 96 h, values above highest tested concentration extrapolated, read-out: IC50Tg; for SI: selectivity index, CC30 (L929)/IC50Tg

SMILES	CC30 [1]	IC50 (T. gondii RH-GFP)	SI (T. gondii RH-GFP)	melting point
Cc1nc[nH]c1-c1n[nH]c(=S)n1-c1ccc(I)cc1 [12b, 4–(4-iodophenyl)-5–(4-methylimidazol-5-yl)-1,2,4-triazole-3-thione]	483.06 µg/mL (≈ 1260 µM)	99.1 µg/mL (≈ 259 µM)	4.88	290 °C
Cc1ccccc1-n1c(-c2[nH]cnc2C)n[nH]c1=S [14b, 5–(4-methylimidazol-5-yl)-4–(2-methylphenyl)-1,2,4-triazole-3-thione]	2414.35 µg/mL (≈ 8900 µM)	77.3 µg/mL (≈ 285 µM)	31.23	249.9 °C
Cc1cccc(-n2c(-c3[nH]cnc3C)n[nH]c2=S)c1 [15b, 5–(4-methylimidazol-5-yl)-4–(3-methylphenyl)-1,2,4-triazole-3-thione]	579.43 µg/mL (≈ 2140 µM)	79.1 µg/mL (≈ 292 µM)	7.33	248.7 °C
Cc1ccc(-n2c(-c3[nH]cnc3C)n[nH]c2=S)cc1Cl [17b, 4–(3-chloro-4-methylphenyl)-5–(4-methylimidazol-5-yl)-1,2,4-triazole-3-thione]	414.57 µg/mL (≈ 1360 µM)	175 µg/mL (≈ 572 µM)	2.37	264.1 °C
COc1ccc(-n2c(-c3[nH]cnc3C)n[nH]c2=S)cc1OC [21b, 4–(3,4-dimethoxyphenyl)-5–(4-methylimidazol-5-yl)-1,2,4-triazole-3-thione]	318.42 µg/mL (≈ 1000 µM)	139 µg/mL (≈ 438 µM)	2.29	213.4 °C
CCOc1ccc(-n2c(-c3[nH]cnc3C)n[nH]c2=S)cc1 [22b, 4–(4-ethoxyphenyl)-5–(4-methylimidazol-5-yl)-1,2,4-triazole-3-thione]	1881.91 µg/mL (≈ 6240 µM)	64.2 µg/mL (≈ 213 µM)	29.33	239.9 °C
Cc1nc[nH]c1-c1n[nH]c(=S)n1-c1c(C(C)C)cccc1C(C)C [24b, 4–(2,6-diisopropylphenyl)-5–(4-methylimidazol-5-yl)-1,2,4-triazole-3-thione]	144.94 µg/mL (≈ 424 µM)	61.7 µg/mL (≈ 181 µM)	2.35	251.9 °C
Cc1nc[nH]c1-c1n[nH]c(=S)n1-c1ccc(N(C)C)cc1 [25b, 5–(4-methylimidazol-5-yl)-4–(4-dimethyloaminophenyl)-1,2,4-triazole-3-thione]	755.61 µg/mL (≈ 2520 µM)	285 µg/mL (≈ 950 µM)	2.65	288.2 °C
CCN(CC)c1ccc(-n2c(-c3[nH]cnc3C)n[nH]c2=S)cc1 [26b, 4–(4-diethylaminophenyl)-5–(4-methylimidazol-5-yl)-1,2,4-triazole-3-thione]	230.94 µg/mL (≈ 703 µM)	157 µg/mL (≈ 478 µM)	1.47	147 °C
Cc1nc[nH]c1-c1n[nH]c(=S)n1Cc1ccccc1 [27b, 4-benzyl-5–(4-methylimidazol-5-yl)-1,2,4-triazole-3-thione]	425.30 µg/mL (≈ 1570 µM)	148 µg/mL (≈ 545 µM)	2.87	229.5 °C
